Reference: ChEMBL document CHEMBL1201862, “PubChem BioAssay data set” (2004)
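Results reflect a 48-hour exposure of cells in 96-well plates to compound at five concentrations. Abbreviation: GI50, concentration required for 50% inhibition of growth.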 The source made the active and inactive calls. No stated cut-off is given here; in the data, active = GI50 up to about 1.1 µM and inactive = higher. Peptide text beside a SMILES is read from it. * marks the point of attachment. Boc = CC(C)(C)OC(=O)*; OtBu = CC(C)(C)O*

Tests used:
Experiment in all cases: growth of human tumour cells (NCI), 48 h
[1] = tested on: UACC-62
[2] = tested on: SF-268
[3] = tested on: HT-29
[4] = tested on: OVCAR-8
[5] = tested on: SK-OV-3
[6] = tested on: SK-MEL-2
[7] = tested on: HOP-62
[8] = tested on: EKVX
[9] = tested on: SW-620
[10] = tested on: A498
[11] = tested on: MDA-N
[12] = tested on: DU-145
[13] = tested on: LOX IMVI
[14] = tested on: UACC-257
[15] = tested on: NCI-H522
[16] = tested on: MCF7
[17] = tested on: RXF 393
[18] = tested on: T47D
[19] = tested on: HCC 2998
[20] = tested on: NCI/ADR-RES
[21] = tested on: U-251
[22] = tested on: PC-3
[23] = tested on: SK-MEL-28
[24] = tested on: NCI-H23
[25] = tested on: KM12
[26] = tested on: HOP-92
[27] = tested on: MDA-MB-231
[28] = tested on: ACHN
[29] = tested on: MDA-MB-435
[30] = tested on: SK-MEL-5
[31] = tested on: TK-10
[32] = tested on: SNB-19
[33] = tested on: 786-0
[34] = tested on: A549
[35] = tested on: RPMI-8226
[36] = tested on: COLO 205
[37] = tested on: UO-31
[38] = tested on: HL-60
[39] = tested on: OVCAR-5
[40] = tested on: M14
[41] = tested on: HCT-116
[42] = tested on: HCT-15
[43] = tested on: SF-295
[44] = tested on: OVCAR-4
[45] = tested on: K562
[46] = tested on: SN12C
[47] = tested on: MOLT-4
[48] = tested on: Hs-578T
[49] = tested on: NCI-H226
[50] = tested on: NCI-H460
[51] = tested on: BT-549
[52] = tested on: IGROV-1
[53] = tested on: SNB-75
[54] = tested on: Malme-3M
[55] = tested on: CAKI-1
[56] = tested on: OVCAR-3
[57] = tested on: CCRF-CEM
[58] = tested on: SR
[59] = tested on: SF-539

## Nn1c(CCCCCCCCc2nnc(COc3ccccc3)n2N)nnc1COc1ccccc1
[1]
  GI50: > 100 µM (inactive)
[2]
  GI50: > 100 µM (inactive)
[3]
  GI50: > 100 µM (inactive)
[4]
  GI50: > 100 µM (inactive)
[5]
  GI50: > 100 µM (inactive)
[6]
  GI50: > 100 µM (inactive)
[7]
  GI50: > 100 µM (inactive)
[8]
  GI50: > 100 µM (inactive)
[9]
  GI50: > 100 µM (inactive)
[10]
  GI50: > 100 µM (inactive)
[11]
  GI50: > 100 µM (inactive)
[12]
  GI50: > 100 µM (inactive)
[13]
  GI50: > 100 µM (inactive)
[14]
  GI50: > 100 µM (inactive)
[15]
  GI50: > 100 µM (inactive)
[16]
  GI50: > 100 µM (inactive)
[17]
  GI50: > 100 µM (inactive)
[18]
  GI50: > 100 µM (inactive)
[19]
  GI50: > 100 µM (inactive)
[20]
  GI50: > 100 µM (inactive)
[21]
  GI50: > 100 µM (inactive)
[22]
  GI50: > 100 µM (inactive)
[23]
  GI50: > 100 µM (inactive)
[24]
  GI50: > 100 µM (inactive)
[25]
  GI50: > 100 µM (inactive)
[26]
  GI50: > 100 µM (inactive)
[27]
  GI50: > 100 µM (inactive)
[28]
  GI50: > 100 µM (inactive)
[29]
  GI50: > 100 µM (inactive)
[30]
  GI50: > 100 µM (inactive)
[31]
  GI50: > 100 µM (inactive)
[32]
  GI50: > 100 µM (inactive)
[33]
  GI50: > 100 µM (inactive)
[34]
  GI50: > 100 µM (inactive)
[35]
  GI50: > 100 µM (inactive)
[36]
  GI50: > 100 µM (inactive)
[37]
  GI50: > 100 µM (inactive)
[38]
  GI50: > 100 µM (inactive)
[39]
  GI50: > 100 µM (inactive)
[40]
  GI50: > 100 µM (inactive)
[41]
  GI50: > 100 µM (inactive)
[42]
  GI50: > 100 µM
[43]
  GI50: > 100 µM (inactive)
[44]
  GI50: > 100 µM (inactive)
[45]
  GI50: > 100 µM (inactive)
[46]
  GI50: > 100 µM (inactive)
[47]
  GI50: > 100 µM (inactive)
[48]
  GI50: > 100 µM (inactive)
[49]
  GI50: > 100 µM (inactive)
[50]
  GI50: > 100 µM (inactive)
[51]
  GI50: > 100 µM (inactive)
[52]
  GI50: > 100 µM (inactive)
[53]
  GI50: 88.1 µM (inactive)
[54]
  GI50: > 100 µM (inactive)
[55]
  GI50: > 100 µM (inactive)

## Cc1c(C)c(C)c(CC2(C)CSC2)c(CC2(C)CSC2)c1C
[1]
  GI50: > 100 µM (inactive)
[56]
  GI50: > 100 µM (inactive)
[2]
  GI50: > 100 µM (inactive)
[3]
  GI50: > 100 µM (inactive)
[4]
  GI50: > 100 µM (inactive)
[5]
  GI50: > 100 µM (inactive)
[6]
  GI50: > 100 µM (inactive)
[7]
  GI50: > 100 µM (inactive)
[57]
  GI50: > 100 µM (inactive)
[8]
  GI50: > 100 µM (inactive)
[9]
  GI50: > 100 µM (inactive)
[10]
  GI50: > 100 µM (inactive)
[11]
  GI50: > 100 µM (inactive)
[12]
  GI50: > 100 µM (inactive)
[13]
  GI50: > 100 µM (inactive)
[14]
  GI50: > 100 µM (inactive)
[15]
  GI50: > 100 µM (inactive)
[16]
  GI50: > 100 µM (inactive)
[17]
  GI50: > 100 µM (inactive)
[18]
  GI50: > 100 µM (inactive)
[58]
  GI50: > 100 µM (inactive)
[20]
  GI50: > 100 µM (inactive)
[21]
  GI50: > 100 µM (inactive)
[22]
  GI50: > 100 µM (inactive)
[23]
  GI50: > 100 µM (inactive)
[26]
  GI50: > 100 µM (inactive)
[27]
  GI50: > 100 µM (inactive)
[28]
  GI50: > 100 µM (inactive)
[30]
  GI50: > 100 µM (inactive)
[31]
  GI50: > 100 µM (inactive)
[32]
  GI50: > 100 µM (inactive)
[33]
  GI50: > 100 µM (inactive)
[34]
  GI50: > 100 µM (inactive)
[35]
  GI50: > 100 µM (inactive)
[36]
  GI50: > 100 µM (inactive)
[37]
  GI50: > 100 µM (inactive)
[38]
  GI50: > 100 µM (inactive)
[39]
  GI50: > 100 µM (inactive)
[40]
  GI50: > 100 µM (inactive)
[41]
  GI50: > 100 µM (inactive)
[42]
  GI50: > 100 µM
[43]
  GI50: > 100 µM (inactive)
[45]
  GI50: > 100 µM (inactive)
[46]
  GI50: > 100 µM (inactive)
[47]
  GI50: > 100 µM (inactive)
[48]
  GI50: > 100 µM (inactive)
[49]
  GI50: > 100 µM (inactive)
[50]
  GI50: > 100 µM (inactive)
[59]
  GI50: > 100 µM (inactive)
[51]
  GI50: > 100 µM (inactive)
[52]
  GI50: > 100 µM (inactive)
[53]
  GI50: > 100 µM (inactive)
[54]
  GI50: > 100 µM (inactive)

## CC(C)(C)OC(=O)CC(NC(=O)OC(C)(C)C)C(=O)NC(Cc1ccccc1)C(N)=O (configuration not stated) (Boc-Asp(OtBu)-Phe-NH2; configuration not given here)
[56]
  GI50: > 100 µM (inactive)
[2]
  GI50: > 100 µM (inactive)
[3]
  GI50: > 100 µM (inactive)
[4]
  GI50: > 100 µM (inactive)
[5]
  GI50: > 100 µM (inactive)
[6]
  GI50: > 100 µM (inactive)
[7]
  GI50: > 100 µM (inactive)
[57]
  GI50: > 100 µM (inactive)
[8]
  GI50: > 100 µM (inactive)
[9]
  GI50: > 100 µM (inactive)
[10]
  GI50: > 100 µM (inactive)
[11]
  GI50: > 100 µM (inactive)
[12]
  GI50: > 100 µM (inactive)
[13]
  GI50: > 100 µM (inactive)
[14]
  GI50: > 100 µM (inactive)
[15]
  GI50: > 100 µM (inactive)
[16]
  GI50: > 100 µM (inactive)
[17]
  GI50: > 100 µM (inactive)
[18]
  GI50: > 100 µM (inactive)
[20]
  GI50: > 100 µM (inactive)
[21]
  GI50: > 100 µM (inactive)
[22]
  GI50: > 100 µM (inactive)
[23]
  GI50: > 100 µM (inactive)
[24]
  GI50: > 100 µM (inactive)
[25]
  GI50: > 100 µM (inactive)
[26]
  GI50: 19.8 µM (inactive)
[27]
  GI50: > 100 µM (inactive)
[28]
  GI50: > 100 µM (inactive)
[29]
  GI50: > 100 µM (inactive)
[30]
  GI50: > 100 µM (inactive)
[31]
  GI50: > 100 µM (inactive)
[32]
  GI50: > 100 µM (inactive)
[33]
  GI50: > 100 µM (inactive)
[34]
  GI50: > 100 µM (inactive)
[35]
  GI50: > 100 µM (inactive)
[36]
  GI50: > 100 µM (inactive)
[37]
  GI50: > 100 µM (inactive)
[39]
  GI50: > 100 µM (inactive)
[40]
  GI50: > 100 µM (inactive)
[41]
  GI50: > 100 µM (inactive)
[42]
  GI50: > 100 µM
[43]
  GI50: > 100 µM (inactive)
[44]
  GI50: > 100 µM (inactive)
[45]
  GI50: > 100 µM (inactive)
[46]
  GI50: > 100 µM (inactive)
[48]
  GI50: > 100 µM (inactive)
[49]
  GI50: > 100 µM (inactive)
[50]
  GI50: > 100 µM (inactive)
[59]
  GI50: > 100 µM (inactive)
[51]
  GI50: > 100 µM (inactive)
[52]
  GI50: > 100 µM (inactive)
[53]
  GI50: > 100 µM (inactive)
[54]
  GI50: > 100 µM (inactive)
[55]
  GI50: > 100 µM (inactive)
